The values that follow come from paper PMC8451604, “Rational formulation engineering of fraxinellone utilizing 6-O-α-D-maltosyl-β-cyclodextrin for enhanced oral bioavailability and hepatic fibrosis therapy” (Drug Delivery, 2021).

Broadly, the viability is a per cent measure of how many cells are alive, often set against a control.

The nature of series [1]: Blood biochemical assay (hematological parameters). In kind it is in vivo, Kunming male mice. The settings on record: mice. The procedure: (§1) The Kunming male mice (weight of 28–30 g) were divided into 10 groups (n = 10): normal group, Frax or G2-β-CD-Frax treatment groups with a Frax dose of 5, 10, and 20 mg/kg, respectively, G2-β-CD solution treatment (equivalent to 20 mg/kg of G2-β-CD-Frax) group. Drug treatment continued every day for 7 weeks. One day after the last administration, blood and major tissues (heart, liver, spleen, lung, and kidney) were obtained from the blank group and drug-treated groups (20 mg/kg) for histological examination. The whole blood was directly analyzed using an automatic blood cell analyzer to obtain hematological parameters. The collected tissues were subjected to histological examination.

The nature of series [2]: Phase solubility study of Frax with CDs. In kind it is physicochemical. The settings on record: 37 °C, from phase solubility curves. The procedure:
Frax was excessively mixed with increasing molar concentrations (0–350.00 mM) of each CD aqueous solution. […] The samples were subjected to HPLC analysis after centrifugation (4024.8 g, 10 min). Phase solubility profiles were plotted by monitoring Frax concentration as a function of the molar concentration of each CD. Based on the phase solubility curves, we calculated the apparent stability constants (Kc, L/mol) according to Equation (1): (1) Kc=Slope/S0(1−Slope) where S0 is the water solubility of Frax at equilibrium.

Series [3] is described as follows: Safety evaluation for seven weeks, histological examination (H&E). In kind it is in vivo, Kunming male mice. The settings on record: mice, oral daily for 7 weeks, 20 mg/kg or equivalent G2-β-CD. On the procedure:
as §1

Series [4] concerns Caco-2 cells. Nature of the series: Cytotoxicity in Caco-2 cells (MTT assay). In kind it is cell-based. Particulars: 4 h. On the procedure:
(§2) Cytotoxicity effects and cellular uptake ability of Frax, CDs, and CDs-Frax complexes were examined using Caco-2 cells. […] Each CD solution was also used to determine whether the cell toxicity was caused by Frax or CDs. For cellular uptake studies, Caco-2 cells were treated with Frax and CDs-Frax (100 μg/mL) for 0.5, 1, and 2 h, respectively. For P-gp inhibition evaluation, the cells were pretreated with verapamil at a concentration of 100 μg/mL and further treated with each drug or formulation. Thereafter, the cells were washed and replenished with fresh PBS (300 μL). The cell lysate was prepared by three cycles of freeze-thaw. Protein concentration in the samples was quantified by the BCA kit while the Frax concentration was determined by HPLC.

The nature of series [5]: Cytotoxicity in Caco-2 cells (MTT assay). In kind it is cell-based. Particulars: human, Caco-2 cells; Caco-2, 300 μg/mL, 4 h; read-out: cell viability (cells remained viable). On the procedure: as §2
Setting [6] is: 7 weeks, colchicine group (0.2 mg/kg), in % (unit assumed).
Where [7] appears, read: 7 weeks, colchicine group (0.2 mg/kg), in fL (unit assumed).

Regarding `COc1cc2c(c(OC)c1OC)-c1ccc(OC)c(=O)cc1[C@@H](NC(C)=O)CC2` [Colchicine, colchicine, reference compound], in series [1] (7 weeks), the “MCHC (mean corpuscular hemoglobin concentration)” value is recorded as 341.86 ± 9.91 and the “PDW (platelet distribution width)” value was 14.99 ± 0.22. In addition, in series [1] (7 weeks, colchicine group (0.2 mg/kg), in 10^9/L (unit assumed)), the “PLT (platelet)” value worked out at 1363.86 ± 333.63. Further, in series [1] (setting [6]), the “HCT (haematocrit)” value came to 39.06 ± 2.62 and the “RDW-CV (red cell volume distribution width)” value is on record as 16.24 ± 1.60. In series [1] (setting [7]), the “MCV (mean cell volume)” value is reported as 43.09 ± 2.97, the “MPV (meanplateletvolume)” value is reported as 6.80 ± 0.51 and the RDW-SD is 29.86 ± 4.02. Also, the “HGB (hemoglobin)” value in series [1] (7 weeks, colchicine group (0.2 mg/kg), in g/L (unit assumed)) stood at 133.57 ± 9.50. Further, the “MCH (mean corpuscular hemoglobin)” value in series [1] (7 weeks, colchicine group (0.2 mg/kg), in pg (unit assumed)) turned out to be 14.71 ± 0.70. Besides, the “WBC (white blood cell)” value in series [1] (7 weeks, in 10^9/L (unit assumed)) is listed as 9.61 ± 4.41. For the same compound, the “RBC (red blood cell)” value in series [1] (7 weeks, in 10^12/L (unit assumed)) was found to be 9.13 ± 1.01.

`OC[C@H]1O[C@H](O[C@H]2[C@H](O)[C@@H](O)[C@@H](OC[C@H]3O[C@@H]4O[C@H]5[C@H](O)[C@@H](O)[C@@H](O[C@H]6[C@H](O)[C@@H](O)[C@@H](O[C@H]7[C@H](O)[C@@H](O)C(O[C@H]8[C@H](O)[C@@H](O)[C@@H](O[C@H]9[C@H](O)[C@@H](O)[C@@H](O[C@H]%10[C@H](O)[C@@H](O)[C@@H](O[C@H]3[C@H](O)[C@H]4O)O[C@@H]%10CO)O[C@@H]9CO)O[C@@H]8CO)O[C@@H]7CO)O[C@@H]6CO)O[C@@H]5CO)O[C@@H]2CO)[C@H](O)[C@@H](O)[C@@H]1O` [G2-β-CD, 6-O-α-D-maltosyl-β-cyclodextrin]: the “apparent stability constant (Kc) for Frax complexation” value (from here on “apparent stability constant (Kc)”) in series [2] came out at 997.68 M⁻¹. Further, the “H&E staining of major tissues” value in series [3] was “no inflammation and no cellular damage”. Moreover, in series [1] (oral daily for 7 weeks), the “changes in blood biochemical assay (in words)” value is on record as “no obvious changes”. Further, the “cell viability (cells remained viable)” value in series [4] (Caco-2, 300 μg/mL) is “over 85%”.

Turning to `CC(O)COC[C@H]1O[C@@H]2O[C@H]3[C@H](O)[C@@H](O)[C@@H](O[C@H]4[C@H](O)[C@@H](O)[C@@H](O[C@H]5[C@H](O)[C@@H](O)[C@@H](O[C@H]6[C@H](O)[C@@H](O)[C@@H](O[C@H]7[C@H](O)[C@@H](O)[C@@H](O[C@H]8[C@H](O)[C@@H](O)[C@@H](O[C@H]1[C@H](O)[C@H]2O)O[C@@H]8COCC(C)O)O[C@@H]7COCC(C)O)O[C@@H]6COCC(C)O)O[C@@H]5COCC(C)O)O[C@@H]4COCC(C)O)O[C@@H]3COCC(C)O` (stereo partly drawn) [HP-β-CD, 2-hydroxypropyl-β-cyclodextrin], in series [2], the “apparent stability constant (Kc)” value worked out at 807.32 M⁻¹. For the same compound, the viability at 4 h, 300 μg/mL in series [5] was over 85%.

Take `OC[C@H]1O[C@@H]2O[C@H]3[C@H](O)[C@@H](O)[C@@H](O[C@H]4[C@H](O)[C@@H](O)[C@@H](O[C@H]5[C@H](O)[C@@H](O)[C@@H](O[C@H]6[C@H](O)[C@@H](O)[C@@H](O[C@H]7[C@H](O)[C@@H](O)[C@@H](O[C@H]8[C@H](O)[C@@H](O)[C@@H](O[C@H]1[C@H](O)[C@H]2O)O[C@@H]8CO)O[C@@H]7CO)O[C@@H]6CO)O[C@@H]5CO)O[C@@H]4CO)O[C@@H]3CO` [β-CD, β-cyclodextrin]: the “apparent stability constant (Kc)” value in series [2] worked out at 109.34 M⁻¹.

Turning to “Sulfobutyl ether-β-cyclodextrin [SBE-β-CD]”, in series [2], the “apparent stability constant (Kc)” value amounted to 168.20 M⁻¹. Moreover, the cell viability result in series [4] (Caco-2, 200 and 300 μg/mL) was “lower than 80%”.
